Laboratory results: patent publication US6284523A, “Process for biodegradation of a xenobiotic” (priority 1998, dated 2001)
Where two headings read alike, the source gives them in different places.

Legend:
[1] = test system: Pseudomonas putida ATCC 11172; assay: Biodegradation of solvents (consumed as substrate); type: cell-based; conditions: Table 1; Yes/No
Description: (§1) Pseudomonas putida available under ATCC accession number 11172, an organism known to degrade phenol by the meta pathway (Bayly et al.^17) was used in this Example. The organism was maintained on medium previously described (Fujita et al.^11), containing 5 g/L glucose and 100 mg/L phenol as carbon sources. EDTA was also added to the medium at a 1:1 molar ratio with ferric chloride to prevent the formation of a precipitate. Cultures were grown in 125 mL Erlenmeyer flasks containing 50 mL of maintenance medium in a shaker bath at 30° C. The flasks were allowed to incubate for 36 hours prior to their use as inoculum for fermentation. A total of 160 mL of the cultured medium was centrifuged, the supernatant discarded and the cell fraction resuspended in the remaining 40 mL of medium. The 40 mL aliquot was then used to inoculate the fermentor for the batch and fed batch experiments.
The biodegradability of the solvents was assessed as part of the solvent selection process. 5 mL of each solvent was added to 125 mL Erlenmeyer flasks containing 50 mL of seeded maintenance medium containing 250 mg/L phenol but no glucose. Solvent was not added to one flask, which was used as a control. In addition, 5 mL of corn oil was added to one flask, to serve as a positive control. Flasks were placed on the shaker bath as above for 7 days. The cell density in each flask was measured every 24 hours. The net change in cell density was then compared to the change in cell density seen in the control and the positive control.

[2] = Determination of partition coefficients of phenol between solvent and medium buffer; type: physicochemical
Description: A stock solution of medium buffer containing 5 g/L of phenol was prepared, and 5 mL samples of the medium buffer were then contacted with 5 mL of solvent using the Mixxor™ contacting system. The contacted samples were then centrifuged, and the organic phase was aspirated and discarded. […] A red colour was developed in the samples, and the absorbance of the solution was measured relative to a blank using a Bausch and Lomb Spectronic 2000™ spectrophotometer. The partition coefficient for phenol in each organic-aqueous system was then be determined by mass balance. Any solvents that formed emulsions with the aqueous phase were eliminated from the solvent screening process, due to the difficulties associated with calculating partition coefficients for these systems.

[3] = Description: (§2) Fermentation was carried out in a 2 L New Brunswick Scientific BioFlo reactor modified for aeration with a fritted glass tube. The fermentor was operated at 30° C., agitated at 200 rpm and aerated at 0.25 vvm, based on the aqueous phase volume. The pH was controlled at 6.8 using 2N KOH. The fermentor was heat sterilized with 1 L of medium (containing no carbon source) already in place. The sterilized medium was then inoculated, and 500 mL of the organic solvent, loaded with 4 g of phenol, was added, as depicted in the schematic diagram shown in FIG. 1. A control fermentor was also prepared in the same manner, but with a cell free aqueous phase, to test for possible volatilization of phenol due to air stripping.
The pH was controlled at 6.8 using 2N KOH.

[4] = test system: Pseudomonas putida ATCC 11172
Description: The microorganism used for these experiments was Pseudomonas putida available under ATCC accession number 11172. The organism was maintained in liquid and solid culture, transferred weekly. The maintenance medium formulation used was as previously described (Fujita et al.^11), with 5 g/L glucose and 100 mg/L phenol provided as carbon sources. Cultures were grown in 125 mL flasks containing 50 mL of medium in a shaker bath at 30° C. for 36 hours prior to inoculation of the fermentor. A total of 160 mL of inoculum from 4 flasks was concentrated by centrifugation, the supernatant decanted and the cell fraction resuspended in the remaining 40 mL of medium to prepare the final inoculum.
as §2
Cell density was estimated by measuring the optical density of samples taken from the aqueous phase at 650 nm. Phenol concentrations in the aqueous phase were estimated using the 4-aminoantipyrine method (Der Yang et al.^12) and a Bausch and Lomb Spectronic 2000 spectrophotometer. The samples were centrifuged prior to analysis in order to remove the cell fraction. The concentration of phenol in the organic phase was measured by contacting a sample taken from the organic phase with medium buffer using a Mixxora contacting system. The resulting mixture was centrifuged, the organic phase aspirated, and the buffer analyzed using the 4-aminoantipyrine method, as mentioned above. The amount of phenol present in the organic phase was then calculated by mass balance using an […] partition coefficient.

[5] = test system: Pseudomonas putida ATCC 11172; remark: listed apart in the source
Description: as §1
The fermentor was prepared as above, but with a second glass sparger added to improve aeration. A propeller was added to the stir shaft of the fermentation vessel, in an attempt to reduce foaming. The fermentation was allowed to progress normally, but when the phenol concentration in the organic phase reached 2 g/L, 250 ml of the organic phase was removed, and spiked with approximately 9 g of phenol. The organic sample was then returned to the reactor, bringing the overall concentration of phenol in the organic phase back to 20 g/L. This was done twice, at 72 hours and at 120 hours. Nutrient spikes (the standard carbon-free medium formulation dissolved in 50 mL of water, instead of 1 L) were also added at 96 hours and at 132 hours, to avoid nutrient depletion in the aqueous phase.
Samples were taken from the organic and aqueous phases every twelve hours throughout the fermentations. Samples were centrifuged prior to analysis to separate the cell fraction, aqueous phase and organic layer. Phenol concentrations in the aqueous phase were assayed using the 4-aminoantipyrine method as described above. The organic samples were contacted with medium buffer using the Mixxor™ contacting system. The resulting mixture was then centrifuged, and the organic phase aspirated off. Phenol levels in the buffer were then determined as above, and the experimentally determined partition coefficient was used to calculate the concentration of phenol present in the organic phase. Cell density was assessed as described above. Consumption of base was also monitored.

[6] = test system: Pseudomonas putida; conditions: cited from earlier work
[7] = test system: Pseudomonas putida ATCC 11172; remark: listed apart in the source
Description: (§3) Samples were taken from the organic and aqueous phases every twelve hours throughout the fermentations. Samples were centrifuged prior to analysis to separate the cell fraction, aqueous phase and organic layer. […] The organic samples were contacted with medium buffer using the Mixxor™ contacting system. The resulting mixture was then centrifuged, and the organic phase aspirated off. Phenol levels in the buffer were then determined as above, and the experimentally determined partition coefficient was used to calculate the concentration of phenol present in the organic phase. Cell density was assessed as described above. Consumption of base was also monitored.

[8] = test system: Pseudomonas putida ATCC 11172; remark: listed apart in the source
Description: To allow for complete biodegradation of the substrate, the carbon-free medium formulation was doubled in concentration, in order to provide adequate nutrients for the fermentation. The fermentor was initially aerated to 0.25 vvm and agitated at 200 rpm, but during the fermentation aeration was increased to 0.5 vvm, and agitation to 250 rpm, to increase the mass transfer of oxygen to the cells. A dissolved oxygen electrode was used to monitor the level of oxygen in the aqueous phase. The pH of the system was controlled at 6.8 using 1N KOH.
as §3

[9] = 28 g fed batch, initial 10 g of phenol

**Q.** With `CCCCCCCCCCO` [1-decanol] as the compound, how does the “Consumed as Substrate” value [1] read?
**A.** Yes

**Q.** Which “Consumed as Substrate” value [1] does the source give for `CCCCCCCCCC(C)=O` [2-undecanone] here?
**A.** No

**Q.** With `CCCCCCCCCCCO` [1-undecanol] as the compound, how does the “Consumed as Substrate” value [1] read?
**A.** Yes

**Q.** And the “Partition Coefficient” value [2]?
**A.** 20.8

**Q.** For `CCCCCCCCC(C)O` (centres unmarked) [2-decanol], which “Consumed as Substrate” value [1] is on record?
**A.** No

**Q.** And the “Partition Coefficient” value [2]?
**A.** 22.6

**Q.** Which “Consumed as Substrate” value [1] does the source give for `CCCCCCCCCO` [1-nonanol] here?
**A.** Yes

**Q.** With `Oc1ccccc1` [phenol] as the compound, how does the “loss of phenol to volatilization” value ([3]; cell free fermentor, 48 hours, Example 1) read?
**A.** no loss of phenol to volatilization

**Q.** And the “loss of phenol due to air stripping” value ([3]; control (cell-free) fermentor, Example 2)?
**A.** no phenol was lost due to air stripping

**Q.** What about the “initial concentration of phenol in the aqueous phase” value (shortened to “initial concentration of phenol”) ([4]; 4 g phenol in 500 mL 2-undecanone, 1 L aqueous) of the same compound?
**A.** approximately 168 mg/L

**Q.** What about the “time to consumption of phenol to exhaustion” value ([4]; 4 g phenol, 2-undecanone, batch) of the same compound?
**A.** over 48 hours

**Q.** And the initial lag phase ([4]; 4 g phenol, batch)?
**A.** 12 h

**Q.** And the “volumetric phenol consumption rate” value ([4]; based on aqueous phase volume, 4 g phenol, batch)?
**A.** approximately 80 mg/L-h

**Q.** And the yield coefficient ([4]; cells in aqueous phase only, 4 g phenol)?
**A.** approximately 0.21 g cells produced/g phenol consumed

**Q.** And the yield coefficient ([5]; 28 g fed batch system, cells in aqueous phase only)?
**A.** 0.12 g/g

**Q.** And the exponential growth phase [5, 9]?
**A.** 48 h

**Q.** And the lag phase [5, 9]?
**A.** 24 h

**Q.** What about the “lag phase of cell growth for the spikes of phenol” value ([5]; fed batch mode) of the same compound?
**A.** eliminates the lag phase

**Q.** What about the “time to degrade 28 g of phenol” value ([5]; fed batch system) of the same compound?
**A.** about 165 hours

**Q.** And the volumetric consumption rate ([5]; fed batch system)?
**A.** 175 mg/L-h

**Q.** What about the “time to consumption of the last 10 g of phenol to exhaustion” value ([5]; fed batch, time from start of fermentation) of the same compound?
**A.** under 168 hours

**Q.** And the “typical yield coefficient on phenol” value ([6]; Hill et al., g cells/g phenol)?
**A.** 0.52 ± 0.08 g/g

**Q.** And the yield coefficient ([6]; Hill et al., printed without unit in Example 1)?
**A.** 0.52+/-0.08

**Q.** What about the “typical inhibitory value of phenol” value ([6]; Kotturi et al.) of the same compound?
**A.** 500 mg/L

**Q.** And the “volumetric phenol consumption rate” value ([6]; highest literature value, batch system, Fujita et al.)?
**A.** 37.5 mg/L-h

**Q.** And the yield coefficient ([7]; 4 g phenol batch, cells in aqueous phase only)?
**A.** 0.20 g cells/g phenol

**Q.** And the “initial concentration of phenol” value ([7]; 4 g phenol in organic phase)?
**A.** 168 mg/L

**Q.** What about the initial lag phase ([7]; 4 g phenol, batch) of the same compound?
**A.** 12 h

**Q.** And the yield coefficient ([8]; 10 g batch system, cells in aqueous phase only)?
**A.** 0.15 g/g

**Q.** What about the “initial concentration of phenol” value ([8]; 10 g phenol in organic phase) of the same compound?
**A.** approximately 420 mg/L

**Q.** And the lag phase ([8]; 10 g phenol, batch)?
**A.** about 24 hours

**Q.** What about the “volumetric phenol consumption rate” value ([8]; the batch system, based on aqueous phase volume) of the same compound?
**A.** approximately 135 mg/L-h

**Q.** Which results are given for `CCCCCCCC(C)O` (centres unmarked) [2-nonanol]?
**A.** Consumed as Substrate [1]: No; Partition Coefficient [2]: 28.3

**Q.** For `CCCCCCCCC(C)=O` [2-decanone], which “Consumed as Substrate” value [1] is on record?
**A.** No
